Test results: US20240252456A1, “ORAL COMPOSITION, SKIN COSMETIC AND HAIR COSMETIC” (MARUZEN PHARMACEUTICALS CO., LTD., priority 2021, published 2024)

Experiments:
CLDN1 mRNA = test: Claudin-1 (CLDN1) mRNA expression promotive action test; format: cell-based, human; details: NHEK, 24 hours, corrected with GAPDH
Description: Normal human neonatal epidermal keratinocytes (NHEK) were precultured using normal human epidermal keratinocyte growth medium (KGM), and the cells were collected by a trypsin treatment. The collected cells were diluted with KGM to a cell density of 15×10^4 cells/mL, then seeded with 2 mL portions in a 6-well plate (30×10^4 cells/well), and cultured overnight under conditions of 37° C. and 5% CO2. After culturing, the medium was replaced with normal human epidermal keratinocyte basal medium (KBM, the above KGM without addition of growth additives (hEGF, BPE, insulin, antibacterial agents, hydrocortisone)), and culturing was further performed for 24 hours.
After culturing for 24 hours, the medium was removed, and 2 mL of each of test samples (Samples 1 and 3, see Table 19 below for final concentrations) dissolved in KBM was added to each well, and culturing was performed under conditions of 37° C. and 5% CO2 for 24 hours. As a control, culturing was performed in the same manner using KBM to which no sample was added. After culturing, the medium was removed, total RNA was extracted using ISOGEN II (available from NIPPON GENE CO., LTD.), each RNA amount was measured using a spectrophotometer, and the total RNA was prepared so as to be 150 ng/μL.
For CLDN1 and GAPDH as an internal standard, the expression levels of mRNA were measured using the above total RNA as a template. Detection was performed through a two-step real-time RT-PCR reaction using a real-time PCR device, Thermal Cycler Dice Real Time System III (available from Takara Bio Inc.), with PrimeScript™ RT Master Mix (Perfect Real Time) (available from Takara Bio Inc.) and TB Green® Fast qPCR Mix (available from Takara Bio Inc.). Primers available from Takara Bio Inc. were used. The expression level of CLDN1 mRNA was obtained as a value corrected with a value of GAPDH based on total RNA preparations prepared from cells cultured “with test sample addition” and “without sample addition.” From the obtained values, the CLDN1 mRNA expression promotion rate (%) was calculated using the following equation. […]

[1] = system: Normal human dermal fibroblasts (NB1RGB); test: Elastin production promotive action test; format: cell-based; details: 5 days
Description: Normal human dermal fibroblasts (NB1RGB) were cultured using Dulbecco's modified Eagle's medium (DMEM) containing 10% FBS, and then the cells were collected by a trypsin treatment. The collected cells were diluted with the above medium to a cell density of 2.2×10^5 cells/mL, then seeded with 100 μL per well in a 96-well microplate, and cultured overnight.
After the culturing was completed, the medium was removed, and 150 μL of each of test samples (Samples 2 and 3, see Table 7 below for final concentrations) dissolved in DMEM containing 0.25% FBS was added to each well, and culturing was performed for 5 days. As a control, culturing was performed in the same manner using DMEM containing 0.25% FBS to which no sample was added. After the culturing was completed, the supernatant was recovered, and the amount of elastin released in the culture supernatant was measured by ELISA method. From the measurement results, the elastin production promotion rate (%) was calculated using the following equation.
Terms in the equation represent the following respective ones. • A: Elastin amount with test sample addition • B: Elastin amount without sample addition

[2] = system: Normal human neonatal epidermal keratinocytes (NHEK); test: ATP production promotive action test (epidermal keratinocytes); format: cell-based; details: 2 hours
Description: Normal human neonatal epidermal keratinocytes (NHEK) were cultured using normal human epidermal keratinocyte growth medium (KGM), and then the cells were collected by a trypsin treatment. The collected cells were diluted with KGM to a cell density of 2.0×10^5 cells/mL, then seeded with 100 μL per well on a collagen-coated 96-well plate, and cultured overnight. After the culturing was completed, the medium was removed, and 100 μL of KGM to which each of test samples (Samples 1 and 2, see Table 13 below for final concentrations) was added was added to each well, and culturing was performed for 2 hours. As a control, culturing was performed in the same manner using KGM to which no sample was added.
The ATP production promotive action was determined by measuring the amount of ATP in cells using the firefly luciferase luminescence method. […] After the reaction, the amount of chemiluminescence proportional to the amount of intracellular ATP was measured using a chemiluminescence measurement device (available from Thermo Fisher Scientific, product name: Varioskan LUX multimode microplate reader). From the obtained results, the ATP production promotion rate (%) was calculated using the following equation. […]

AGEs = test: Advanced glycation end product (AGEs) formation suppressive action test; details: type I collagen-coated plate, 0.2M D(−)-ribose, 37° C., 20 days
Description: In a 96-well type I collagen-coated plate (available from AGC Inc.), 100 μL of a mixed solution of 0.2M D(−)-ribose prepared with PBS(−) buffer solution and each of test samples (Samples 1 and 2, see Table 22 below for final concentrations) were added and statically placed at 37° C. for 20 days to form AGEs. In addition, PBS(−) buffer solution only as a negative control and a 0.2M D(−)-ribose solution prepared with PBS(−) buffer solution as a positive control were statically placed in the same manner. After 20 days, the amount of AGEs was measured by the ELISA method using an anti-AGEs antibody (available from TPANS GENIC INC.), and the AGEs formation suppressive action was evaluated. From the obtained results, the AGEs formation suppression rate (%) was calculated using the following equation.
Terms in the equation represent the following respective ones. • A: Absorbance at wavelength 405 nm in negative control • B: Absorbance at wavelength 405 nm in positive control • C: Absorbance at wavelength 405 nm with test sample addition

Row | Structure (SMILES) | CLDN1 mRNA expression promotion rate (CLDN1 mRNA; 25 μmol/L) [%] | Elastin production promotion rate ([1]; 62.5 μmol/L) [%] | Elastin production promotion rate ([1]; 250 μmol/L) [%] | ATP production promotion rate ([2]; 6.25 μmol/L) [%] | CLDN1 mRNA expression promotion rate (CLDN1 mRNA; 100 μmol/L) [%] | AGEs formation suppression rate (AGEs; 125 μmol/L) [%] | AGEs formation suppression rate (AGEs; 500 μmol/L) [%] | AGEs formation suppression rate (AGEs; 2000 μmol/L) [%] | ATP production promotion rate ([2]; 25 μmol/L) [%] | Elastin production promotion rate ([1]; 15.6 μmol/L) [%]
1 | O=C(O)CCc1ccccc1 [Sample 3, 3-phenylpropionic acid] | 125.5 | 174.0 | 239.0 |  |  |  |  |  |  | 
2 | O=C(O)CCc1ccc(O)c(O)c1 [Sample 1, 3,4-Dihydroxyhydrocinnamic acid] | 256.6 |  |  | 106.7 | 568.6 | 45.7 | 69.4 | 78.4 |  | 
3 | O=C(O)CCc1ccc(O)cc1 [Sample 2, 3-(4-Hydroxyphenyl)propionic acid] |  | 147.6 | 189.3 |  |  |  |  | 13.3 | 112.4 | 145.4
